For 14 compounds, TGI results are on record in PubChem BioAssay (NCI).

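Cells were grown in 96-well plates and exposed to each compound for 48 hours at five concentrations; endpoints were interpolated linearly between bracketing concentrations, or set to the highest concentration if not reached. TGI denotes the concentration required for complete inhibition of growth.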

Holding throughout (experiment): NCI-60 cell line screen, 48 h
For experiment [1], the system named is TK-10 renal.
Experiment [2] concerns K-562 leukemia.
The subject of experiment [3] is SW-620 colon.
For experiment [4], the system named is SNB-19 CNS.
Experiment [5] concerns RPMI-8226 leukemia.
Experiment [6] concerns HS 578T breast.
The test system of experiment [7] is RXF 393 renal.
Experiment [8] concerns HCT-15 colon.
Experiment [9] deals with UACC-62 melanoma.
Experiment [10] concerns CCRF-CEM leukemia.

In the case of `N#Cc1sc2c(c1OC(=O)c1ccco1)c(=O)n(-c1ccccc1)c(=S)n2-c1ccccc1`, the TGI is greater than 100 µM in [1]; 96 µM in [2]; greater than 100 µM in experiment [3]; greater than 100 µM in experiment [4]; 59.3 µM in experiment [5]; greater than 100 µM in [6]. Moreover, the TGI in experiment [7] is 69.6 µM; in [8], 52.4 µM; in [9], 34.1 µM; in experiment [10], greater than 10 µM.
In the case of `CCn1c(CCCc2nc3c([nH]2)c(=O)n(C)c(=O)n3C)nc2c1c(=O)n(C)c(=O)n2C`, the TGI in [1], in [2], in experiment [3], in experiment [4], in experiment [5] and in experiment [6] was greater than 100 µM throughout. The TGI in experiment [7], in experiment [8], in experiment [9] and in [10] was greater than 100 µM each time.
With `O=[N+]([O-])c1c(O)c2nonc2c2nn(-c3ccccc3)nc12`, the TGI in [1], in experiment [2], in [3], in [4], in experiment [5] and in [6] was greater than 100 µM throughout. In addition, the TGI in experiment [8], in experiment [9] and in experiment [10] was greater than 100 µM each time.
As to `COc1cc2nc(-c3cccs3)nc(Nc3ccccc3C(=O)NN)c2cc1OC`, the TGI in experiment [1], in [2], in [3], in experiment [4], in experiment [5] and in experiment [6] was greater than 100 µM each time. Also, the TGI in experiment [8], in [9] and in experiment [10] was greater than 100 µM throughout.
In the case of `c1ccc2c(c1)nnn2C1CCCCO1` (centres undefined), the TGI in experiment [1], in experiment [2], in experiment [3], in experiment [4], in [5] and in [6] was greater than 100 µM throughout. The TGI in experiment [7], in experiment [8], in experiment [9] and in experiment [10] was greater than 100 µM in each case.
Consider `COc1cc(C(c2ccccc2)N2C(=O)CC[C@H]2C(=O)O)cc(OC)c1OC` (some centres undefined), for which the TGI in experiment [1], in [2], in experiment [3], in experiment [4], in [5] and in experiment [6] was greater than 100 µM in each case. The TGI in [8], in experiment [9] and in experiment [10] was greater than 100 µM throughout.
As for `CCOC(=O)Cc1[nH]c(C(=O)c2ccccc2)cc1C(=O)c1ccccc1`, the TGI in [1] was greater than 100 µM; in experiment [2], greater than 10 µM; in [3] it was greater than 100 µM; in [4] it was greater than 100 µM; in experiment [5], greater than 10 µM; in [6], greater than 100 µM. In addition, the TGI in [7] is greater than 100 µM; in experiment [8], greater than 100 µM; in experiment [9], greater than 100 µM; in experiment [10], greater than 10 µM.
Take `COCC(C#N)NC1CC(OC2CC(O)(C(=O)CO)Cc3c(O)c4c(c(O)c32)C(=O)c2c(OC)cccc2C4=O)OC(C)C1O` (centres undefined): the TGI came out at 2.42 µM in experiment [1]; 1.11 µM in experiment [2]; 4.8 µM in experiment [3]; 2.61 µM in experiment [4]; 1.15 µM in experiment [5]; 1.32 µM in [6]. The TGI in experiment [7] was 0.497 µM; in [8] it was 12.8 µM; in [9] it was 0.21 µM; in experiment [10], 1.69 µM.
For `Cc1nc(N)c(N2CCN(S(=O)(=O)N(Cc3ccccc3)Cc3ccccc3)CC2)c(=O)[nH]1`, the TGI in experiment [1] is 59 µM; in experiment [2] it was greater than 100 µM; in experiment [3], greater than 100 µM; in [4], 74.7 µM; in [5], greater than 100 µM; in experiment [6] it was 69.8 µM. In addition, the TGI in experiment [8] and in experiment [10] was greater than 100 µM in each case.
In the case of `N#Cc1c(/C=C/c2ccccc2)c2c([nH]c1=S)CCCCC2`, the TGI in experiment [1], in experiment [2], in experiment [3], in [4], in [5] and in [6] was greater than 100 µM in each case. The TGI in experiment [7], in experiment [8] and in experiment [10] was greater than 100 µM throughout.
Take `CCC[N+](C)(C)CCCNC(=O)c1c(O)c2ccccc2[nH]c1=O`: the TGI in [1], in experiment [2], in [3], in experiment [5], in experiment [6] and in experiment [7] was greater than 100 µM throughout. Further, the TGI in experiment [8], in experiment [9] and in experiment [10] was greater than 100 µM throughout.
On to `Cc1cnc2c(c1)C(=O)N(c1ccc(Oc3ccccc3)cc1)S2(=O)=O`, for which the TGI in experiment [1], in [2], in [3], in [4], in [5] and in experiment [6] was greater than 100 µM throughout. In addition, the TGI in [8], in experiment [9] and in [10] was greater than 100 µM throughout.
`COC(=O)N[C@@H]1C[C@H]2CC[C@]1(O[Si](C(C)C)(C(C)C)C(C)C)C(=O)C2`: the TGI in [1] is 30.6 µM; in experiment [2] it was greater than 100 µM; in experiment [3] it was greater than 100 µM; in [4] it was 39.5 µM; in experiment [5], 69.8 µM; in experiment [6] it was 31.5 µM. In addition, the TGI in experiment [8] was 41.4 µM; in experiment [9], 44.7 µM; in experiment [10], greater than 100 µM.
Take `COc1cc2nc(-c3cccs3)nc(N3CCN(c4ccccc4)CC3)c2cc1OC`: the TGI in [1], in experiment [2], in [3], in [4], in [5] and in experiment [6] was greater than 100 µM in each case. The TGI in experiment [8] and in experiment [9] was greater than 100 µM each time.
